“And” between values parts separate entries of the source, which are not always exact repeats. Identical values can stand only once. Like-named read-outs stand apart in the source and are kept apart here.
Columns and labels:
[1] = tested on: caspases 3/7; test: Caspase activity, luminescent kit, caspases 3/7; type: cell-based, human; conditions: for kaspáza (3) a 7, průměry (means of raw signal): mean of 4 experiments; for kaspáza (3) a 7, raw signal / kaspáza (3) a 7, signal / viabilita: individual experiments by date
[2] = MTT cytotoxicity assay, 3T3 cells; type: cell-based, mouse; conditions: mouse, 3T3 mouse embryo fibroblasts, 3T3, 10 000 b/j; for viability at 72 h, 3 nM: koncentrace 3 nM; for viability at 72 h, 10 nM: koncentrace 10 nM; for viability at 72 h, 30 nM: koncentrace 30 nM; for viability at 72 h, 100 nM: koncentrace 100 nM; for viability at 72 h, 300 nM: koncentrace 300 nM; for viability at 72 h, 1000 nM: koncentrace 1000 nM; for viability at 72 h, 3000 nM: koncentrace 3000 nM
In short: (§1)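 Non-cancerous 3T3 mouse embryo fibroblasts were plated at 10,000 cells/well in 96-well plates and cultured for 24 h/37°C. The medium was then replaced with serum- and pyruvate-free DMEM for a further 24 h/37°C. Cells were exposed to agents for 72 h/37°C with 0.1% DMSO present, and viability was measured by MTT.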

[3] = tested on: 3T3 mouse embryo fibroblasts; test: MTT cytotoxicity assay, 3T3 cells; type: cell-based; conditions: for IC50: MTT
In short: as §1

[4] = tested on: H9c2 cardiomyoblasts; test: MTT cytotoxicity assay, H9c2 cells; type: cell-based, rat; conditions: for IC50: MTT, read-out: IC50
In short: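 72 h/37°C exposure, 0.1% DMSO. Plating: MCF-7 5,000; HCT116, A549 2,000; H9c2 10,000 cells/well, H9c2 switched to serum/pyruvate-free DMEM 24 h. MTT OD 570 nm, 690 nm background subtracted. Viability as % untreated control; IC50 derived.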

[5] = individual experiments, read-out: MTT viability (0 = 100)
[6] = mean, read-out: MTT viability (0 = 100), průměr

Structure (SMILES): CCNC(=S)NN=C(c1ccccc1)c1ccccn1 [Bp4eT, 2-benzoylpyridine 4-ethyl-3-thiosemicarbazone]
- Activation of caspases 7, 8 and 9 ([1]; 100 nM, 3 h, MCF-7, statement covers caspases 7, 8 and 9): did not activate any of the caspases
- Caspase 7 activity, % of the control ([1]; 100 nM, 24 h, MCF-7, corrected for viability): 203%
- Caspase 7 activity, % of control ([1]; 100 nM, 72 h, MCF-7, corrected for viability): 318%
- kaspáza (3) a 7, % kontroly ([1]; 3 hodiny (3 h), % of control): 96.83%
- kaspáza (3) a 7, průměry (means of raw signal) ([1]; 3 hodiny (3 h)): 1616.38
- kaspáza (3) a 7, raw signal ([1]; 3 hodiny): 1828 and 1581 and 1679 and 1377.5
- kaspáza (3) a 7, raw signal, průměry ([1]; 3 hodiny, mean): 1616.38
- kaspáza (3) a 7, % kontroly ([1]; 3 hodiny, mean, normalised to viability): 101.92 % kontroly
- kaspáza (3) a 7, signal / viabilita ([1]; 3 hodiny, normalised to viability): 18.975 and 16.4111 and 17.4284 and 14.2987
- kaspáza (3) a 7, signal / viabilita, průměry ([1]; 3 hodiny, normalised to viability, mean): 16.7783
- kaspáza (3) a 7, % kontroly ([1]; 24 hodin (24 h), % of control): 107.61%
- kaspáza (3) a 7, průměry (means of raw signal) ([1]; 24 hodin (24 h)): 2465.5
- kaspáza (3) a 7, raw signal ([1]; 24 hodin): 2823.5 and 2154.5 and 2683 and 2201
- kaspáza (3) a 7, raw signal, průměry ([1]; 24 hodin, mean): 2465.5
- kaspáza (3) a 7, % kontroly ([1]; 24 hodin, mean, normalised to viability): 203.48 % kontroly
- kaspáza (3) a 7, signal / viabilita ([1]; 24 hodin, normalised to viability): 53.4249 and 40.7664 and 50.7664 and 41.6462
- kaspáza (3) a 7, signal / viabilita, průměry ([1]; 24 hodin, normalised to viability, mean): 46.651
- kaspáza (3) a 7, % kontroly ([1]; 72 hodin (72 h), % of control): 86.15%
- kaspáza (3) a 7, průměry (means of raw signal) ([1]; 72 hodin (72 h)): 6404.25
- kaspáza (3) a 7, raw signal ([1]; 72 hodin): 10190.5 and 6963 and 3947 and 4516.5
- kaspáza (3) a 7, raw signal, průměry ([1]; 72 hodin, mean): 6404.25
- kaspáza (3) a 7, % kontroly ([1]; 72 hodin, mean, normalised to viability): 318.49 % kontroly
- kaspáza (3) a 7, signal / viabilita ([1]; 72 hodin, normalised to viability): 376.172 and 257.032 and 145.7 and 166.722
- kaspáza (3) a 7, signal / viabilita, průměry ([1]; 72 hodin, normalised to viability, mean): 236.406
- viability at 72 h, 3 nM [2, 5]: 101%
- viability at 72 h, 3 nM [2, 6]: 102%
- viability at 72 h, 10 nM [2, 5]: 93.7%
- viability at 72 h, 10 nM [2, 6]: 98.6%
- viability at 72 h, 30 nM [2, 5]: 89%
- viability at 72 h, 30 nM [2, 6]: 91.5%
- viability at 72 h, 100 nM [2, 5]: 75.4%
- viability at 72 h, 100 nM [2, 6]: 72.8%
- viability at 72 h, 300 nM [2, 5]: 72.4%
- viability at 72 h, 300 nM [2, 6]: 69.4%
- viability at 72 h, 1000 nM [2, 5]: 49.5%
- viability at 72 h, 1000 nM [2, 6]: 56.6%
- viability at 72 h, 3000 nM [2, 5]: 32.5%
- viability at 72 h, 3000 nM [2, 6]: 40.5%
- IC50 ([3]; 3T3, 10 000 b/j, individual experiments, read-out: IC50): 1080 nM and 1700 nM and 1480 nM
- MTT viability (0 = 100) ([3]; 3T3, 10 000 b/j, koncentrace 3 nM, individual experiments): 107.858 and 101.159 and 95.977
- MTT viability (0 = 100) ([3]; 3T3, 10 000 b/j, koncentrace 10 nM, individual experiments): 95.2009 and 97.9751 and 101.968 and 103.897
- MTT viability (0 = 100) ([3]; 3T3, 10 000 b/j, koncentrace 30 nM, individual experiments): 82.5017 and 95.1437 and 97.4935 and 93.6042
- MTT viability (0 = 100) ([3]; 3T3, 10 000 b/j, koncentrace 100 nM, individual experiments): 72.3252 and 75.1668 and 68.1869
- MTT viability (0 = 100) ([3]; 3T3, 10 000 b/j, koncentrace 300 nM, individual experiments): 69.1649 and 63.247 and 72.6411
- MTT viability (0 = 100) ([3]; 3T3, 10 000 b/j, koncentrace 1000 nM, individual experiments): 57.0662 and 64.2452 and 55.7111
- MTT viability (0 = 100) ([3]; 3T3, 10 000 b/j, koncentrace 3000 nM, individual experiments): 36.2815 and 49.6279 and 43.6868
- IC50 ([3]; Mus musculus, Fibroblast, 3T3, 10 000 b/j, individual experiments, read-out: IC50): 977 nM
- IC50 ([3]; Mus musculus, Fibroblast, 3T3, 10 000 b/j, mean, read-out: IC50, průměr): 1310 nM
- IC50 ([3]; Mus musculus, Fibroblast, 72 h, 3T3, 72 h/37°C, mean ± SD, n ≥ 4, read-out: IC50): 1310 ± 337 nM
- MTT, relative to control (0 = 100) ([4]; H9c2, 10 000 b/j, 3 nM, průměr (mean)): 99.21
- MTT, relative to control (0 = 100) ([4]; H9c2, 10 000 b/j, 3 nM, single experiment (date)): 102.894 and 97.5415 and 98.1925 and 99.1728 and 98.234
- MTT, relative to control (0 = 100) ([4]; H9c2, 10 000 b/j, 10 nM, průměr (mean)): 97.95
- MTT, relative to control (0 = 100) ([4]; H9c2, 10 000 b/j, 10 nM, single experiment (date)): 93.4128 and 99.1411 and 98.6466 and 98.7917 and 99.7545
- MTT, relative to control (0 = 100) ([4]; H9c2, 10 000 b/j, 30 nM, průměr (mean)): 93.46
- MTT, relative to control (0 = 100) ([4]; H9c2, 10 000 b/j, 30 nM, single experiment (date)): 89.8997 and 94.1191 and 90.5168 and 97.6473 and 95.1275
- MTT, relative to control (0 = 100) ([4]; H9c2, 10 000 b/j, 100 nM, průměr (mean)): 83.34
- MTT, relative to control (0 = 100) ([4]; H9c2, 10 000 b/j, 100 nM, single experiment (date)): 88.1519 and 73.0922 and 83.4003 and 88.2 and 83.8639
- MTT, relative to control (0 = 100) ([4]; H9c2, 10 000 b/j, 300 nM, průměr (mean)): 64.46
- MTT, relative to control (0 = 100) ([4]; H9c2, 10 000 b/j, 300 nM, single experiment (date)): 78.5818 and 47.7898 and 54.7281 and 65.2971 and 75.8815
- MTT, relative to control (0 = 100) ([4]; H9c2, 10 000 b/j, 1000 nM, průměr (mean)): 35.85
- MTT, relative to control (0 = 100) ([4]; H9c2, 10 000 b/j, 1000 nM, single experiment (date)): 36.8685 and 33.593 and 34.7888 and 38.1329
- MTT, relative to control (0 = 100) ([4]; H9c2, 10 000 b/j, 3000 nM, průměr (mean)): 31.03
- MTT, relative to control (0 = 100) ([4]; H9c2, 10 000 b/j, 3000 nM, single experiment (date)): 33.7493 and 30.5962 and 27.1956 and 32.5967
- IC50 ([4]; H9c2, 10 000 b/j, single experiment (date)): 360 nM and 438 nM and 587 nM
- IC50 ([4]; Rattus norvegicus, H9c2, 72 h, H9c2, 72 h/37°C, mean ± SD, n ≥ 4): 524 ± 157 nM
- IC50 ([4]; Rattus norvegicus, H9c2, H9c2, 10 000 b/j, průměr (mean)): 524 nM
- IC50 ([4]; Rattus norvegicus, H9c2, H9c2, 10 000 b/j, single experiment (date)): 713 nM
